From US20250099420A1, “SMALL MOLECULE MODULATORS OF GPR139 COMPLEX” (University of Florida Research Foundation, Incorporated, priority 2022, published 2025)
Where two headings read alike, the source gives them in different places.

What was measured:
parental HEK cells = experiment: HEK parental Agonist Counterscreen Assay (non-transfected cells); format: cell-based; settings: for Averaged Max % Response (±St. Dev.): activity relative to known control
Text: The high control for the agonist counterscreen was Forskolin not acetylcholine.

GPR139 = molecular target: T1, GPR139 (Homo sapiens, UniProt Q6DWJ6); experiment: GPR139 Agonist titration / agonist counterscreen assay (calcium detection, HEK-GPR139 cells); format: cell-based; design: expressed in transfected cells; host or cells: HEK Aequorin cells, Maxcyte transient transfection; settings: GPR139 Agonist Activity; for EC50: read-out: EC50; for Averaged Max % Response (±St. Dev.): activity relative to known control
T1 sequence (Q6DWJ6 1-353): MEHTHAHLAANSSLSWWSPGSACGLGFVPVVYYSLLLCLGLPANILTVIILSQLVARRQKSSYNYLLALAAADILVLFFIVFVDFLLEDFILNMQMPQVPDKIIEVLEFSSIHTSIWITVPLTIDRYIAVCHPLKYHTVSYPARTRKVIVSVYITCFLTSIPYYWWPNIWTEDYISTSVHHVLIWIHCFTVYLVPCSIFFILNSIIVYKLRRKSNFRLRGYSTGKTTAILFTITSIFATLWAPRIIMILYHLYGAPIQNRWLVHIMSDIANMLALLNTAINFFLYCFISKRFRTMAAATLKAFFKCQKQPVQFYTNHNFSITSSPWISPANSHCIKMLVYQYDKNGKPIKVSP
Description: GPR activity was assessed using a calcium detection assay. […] Negative control samples were treated with DMSO. […] Intracellular calcium was measured using Calcium 5.

[1] = HEK Agonist Activity section of Table 4 (parental HEK counterscreen)
[2] = Homo sapiens, HEK293, HEK Agonist Activity section of Table 4 (parental HEK counterscreen)
[3] = values printed in E-notation without unit
[4] = Homo sapiens, HEK293, HEK Agonist Activity, parental non-transfected HEK cells
[5] = HEK Agonist Activity, parental non-transfected HEK cells

SMILES	Lipophilic Efficiency (logD) (parental HEK cells; HEK Agonist Activity section)	Lipophilic Efficiency (logP) (parental HEK cells; HEK Agonist Activity section)	Averaged Max % Response (±St. Dev.) (parental HEK cells; HEK Agonist Activity section)	Efficiency Ligand (GPR139)	Hill Slope (GPR139)	Lipophilic Efficiency (logD) (GPR139)	Lipophilic Efficiency (logP) (GPR139)	EC50 (GPR139; HEK-GPR139 cells)	Averaged Max % Response (±St. Dev.) (GPR139)	EC50 (parental HEK cells; [2])	Lipophilic Efficiency (logD) (GPR139; based on logD)	Lipophilic Efficiency (logP) (GPR139; based on logP)	Hill Slope (GPR139; fitted dose-response curve)	Efficiency Ligand (GPR139; ligand efficiency)	EC50 (GPR139; [3])	Lipophilic Efficiency (logD) (parental HEK cells; HEK Agonist Activity)	Lipophilic Efficiency (logP) (parental HEK cells; HEK Agonist Activity)	Averaged Max % Response (±St. Dev.) (parental HEK cells; HEK Agonist Activity)	further results
Cc1cccc(CNC(=O)Nc2ccc(-c3cn[nH]c3)cc2)c1.O=C(O)C(F)(F)F [SR-00000005301]	1.56	1.56	8.29 ± 4.70%	0.40	0.94	3.26	3.26	281 nM	86.84 ± 8.43%	–	–	–	–	–	–	–	–	–	EC50 (parental HEK cells; [1]): > 14100 nM
Cc1c(Cl)c(C(F)(F)F)nn1CC(=O)NCc1ccc(Cl)cc1 [SR-01000429212]	1.05	1.05	−31.95 ± 8.26%	0.34	0.88	1.94	1.94	2300 nM	80.96 ± 18.51%	> 18000 nM	–	–	–	–	–	–	–	–	–
CC1CC(C)CN(C(=O)C2C3C=CC4(CN(Cc5ccccc5Cl)C(=O)C24)O3)C1 (centres unmarked) [SR-01000583192]	2.09	2.09	13.45 ± 13.24%	–	–	–	–	–	108.22 ± 25.63%	–	4.61	4.61	0.51	0.35	48.1 nM	–	–	–	EC50 (parental HEK cells; [1]): > 15900 nM
COc1cccc(C(=O)NNC(=O)C(C)Oc2ccc(Cl)cc2Cl)c1 (centres unmarked) [SR-01000356497]	–	–	–	–	–	–	–	–	126.50 ± 10.38%	–	4.97	4.94	0.32	0.47	4.9 nM	1.52	1.48	2.54 ± 3.30%	EC50 (parental HEK cells; [4]): > 14100 nM
Cc1c(C(=O)NC(C)(C)CO)cnn1-c1ncc2c(n1)-c1ccccc1CC2 [SR-01000239973]	–	–	–	–	–	–	–	–	105.15 ± 8.65%	–	5.11	5.11	0.92	0.39	15.7 nM	2.16	2.16	−7.52 ± 3.99%	EC50 (parental HEK cells; [4]): > 14100 nM
O=C(O)c1ccccc1C(=O)c1cccc2ccccc12 [SR-01000391835]	4.05	0.66	10.10 ± 5.45%	–	–	–	–	–	104.57 ± 1.81%	> 18300 nM	5.91	2.52	0.80	0.44	254 nM	–	–	–	–
COc1ccc2cc(C3(C)CC(=O)N(CC(=O)N(CC(C)C)CC(C)C)C3=O)ccc2c1 (centres unmarked) [SR-01000054961]	1.27	1.27	6.24 ± 6.42%	0.26	0.85	2.43	2.43	–	79.59 ± 15.93%	> 14100 nM	–	–	–	–	–	–	–	–	–
Cn1cnnc1SCc1ccc(F)c2ccccc12 [SR-01000524029]	–	–	–	–	–	–	–	–	98.34 ± 6.18%	–	4.61	4.61	0.92	0.57	16.2 nM	1.61	1.61	9.45 ± 2.06%	EC50 (parental HEK cells; [5]): > 16000 nM
Cc1ccccc1CN1CCC(O)(c2ccc(Cl)c(C(F)(F)F)c2)CC1 [SR-05000022582]	1.43	−0.025	0.58 ± 18.59%	0.31	0.53	2.32	0.87	1800 nM	135.48 ± 20.60%	–	–	–	–	–	–	–	–	–	EC50 (parental HEK cells; [1]): > 14100 nM
O=C1N2CN(Cc3ccccc3)CN3C(=O)N4CN(Cc5ccccc5)CN1C4C23 (centres unmarked) [SR-01000090996]	2.07	2.07	−5.40 ± 6.26%	–	–	–	–	–	117.44 ± 4.30%	> 14100 nM	4.52	4.52	1.21	0.34	49.3 nM	–	–	–	–
O=C(CC(c1ccccc1)c1ccccc1)Oc1coc(CSc2ncccn2)cc1=O [SR-01000020502]	–	–	–	–	–	–	–	–	91.42 ± 14.52%	–	2.69	2.69	1.13	0.32	38.7 nM	0.13	0.13	4.84 ± 4.90%	EC50 (parental HEK cells; [5]): > 13900 nM
O=C(Cn1nnc(-c2ccccc2)n1)NNC(=O)Cn1c(C(F)(F)F)nc2ccccc21 [SR-01000070891]	–	–	–	–	–	–	–	–	105.87 ± 4.30%	–	4.97	4.93	0.88	0.35	11.9 nM	1.86	1.83	8.31 ± 6.92%	EC50 (parental HEK cells; [4]): > 15200 nM
CC1=NNC(=O)C1CC(=O)N/N=C/c1cccc2ccccc12 (centres unmarked) [SR-01000080433]	3.22	3.22	29.03 ± 7.47%	–	–	–	–	–	107.91 ± 12.91%	–	4.98	4.98	0.75	0.40	242 nM	–	–	–	EC50 (parental HEK cells; [1]): > 14100 nM
O=C1CCCCN1c1cccc(NS(=O)(=O)c2cc(Cl)ccc2Cl)c1 [SR-01000916375]	1.86	1.41	−1.52 ± 2.20%	0.36	0.68	3.43	2.99	373 nM	91.29 ± 4.98%	> 14100 nM	–	–	–	–	–	–	–	–	–
O=C(CC1CCN(Cc2ccccc2O)C1=O)C1CCC(c2cccc(O)c2)C(O)C1 (centres unmarked) [SR-01000151350]	1.47	1.47	12.46 ± 7.98%	0.29	1.51	3.10	3.10	328 nM	101.74 ± 19.26%	> 14100 nM	–	–	–	–	–	–	–	–	–
